Assay results taken from US9284283B2, “Macrocyclic compounds for modulating IL-17” (ENSEMBLE THERAPEUTICS CORPORATION, priority 2012, dated 2016).
Read-outs that look alike come from different tables or passages of the source.

What was measured:
[1] = system: IL-17A induced secretion of IL-6 in primary human RASF cells; test: Inhibition of IL17A induced secretion of IL6 in human rheumatoid arthritis synovial fibroblast (RASF) cells; assay type: cell-based
Protocol: This assay was used to determine the extent of inhibition of IL-17A induced secretion of IL-6 in primary human rheumatoid synovial fibroblast (RASF) cells by compounds of the invention. IL-17A is known to stimulate IL-6 production in RASF cells.
Low passage (passage 2-8) Primary human RASF cells (Asterand) were maintained in maintenance medium. Cells were detached from flasks by tryptic digestion and the cell density of the suspension determined. To each well of a 96 well culture plate was added 100 μL of seeding medium containing 50,000 cells/mL and the plate incubated overnight in a humidified 37° C., 5% CO2 incubator. The medium was replaced with fresh assay medium and cells were incubated for additional 5 hours in a humidified 37° C., 5% CO2 incubator prior to stimulation with recombinant human IL-17A (“rhIL-17A”). Prior to addition to cells, rhIL-17A (30 ng/mL) in assay medium was incubated with either DMSO alone, compounds, or anti-IL17 receptor antibody (3 μg/mL) for 1 hour at 37° C. The final concentration of DMSO in all samples was 0.25%. The final concentration of compounds varied from 0.03 μM to 25 μM.
Immediately before stimulation, cells were washed once with fresh assay medium. Then, 100 μL of the test samples was added in triplicate wells and the plates incubated for 20 hours in a humidified 37° C., 5% CO2 incubator. The assay medium from each well was collected and the IL-6 concentration in cell culture supernatants was determined by ELISA either immediately or after storage at −20° C.
A water-soluble tetrazolium salt (WST1) viability assay was immediately performed on the cells after the conditioned medium was collected using a WST1 reagent purchased from Roche. The concentration of IL-6 obtained from ELISA was normalized by the WST1 data.

[2] = molecular target: T1, biotinylated human IL-17 (binding to IL17R/Fc) (Homo sapiens, UniProt Q16552); test: IL-17 competition ELISA II (captured IL17R/Fc, biotinylated IL-17)
T1 construct: purchased R&D Systems 317-ILB (IL-17, biotinylated); 177-IR (IL17R/Fc)
T1 sequence (Q16552 20-155 limits assumed): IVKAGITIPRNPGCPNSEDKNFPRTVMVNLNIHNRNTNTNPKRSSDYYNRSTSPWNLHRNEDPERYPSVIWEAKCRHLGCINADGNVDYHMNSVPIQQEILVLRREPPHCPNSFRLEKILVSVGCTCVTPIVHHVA
Outline: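 Anti-human IgG-coated plates captured IL17R/Fc (10 nM), then compound (5-fold dilutions from 1 μM) and biotinylated human IL-17 (20 nM stock) were added for 30 min at room temperature in PBST. Bound IL-17 detected by streptavidin-HRP/TMB at 450 nm. IC50 from 4-parameter logistic fit between no-competitor and blank controls.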

Row | SMILES | IC50 ([1]; Homo sapiens, Fibroblast) | IC50 [2] | IC50 [1]
1 | O=C1CNC(=O)[C@@H](Cc2ccc(NC(=O)[C@H](Cc3ccccc3Cl)NC(=O)Cc3cccnc3)cc2)NC(=O)CC2(CCCC2)CC(=O)NCCCCCN1 [Compound 198] | 1000 to 10000 nM |  | 
2 | O=C1CNC(=O)[C@@H](Cc2ccc(NC(=O)[C@@H](NC(=O)Cc3ccc(F)cc3)C3CCCCC3)cc2)NC(=O)CC2(CCCC2)CC(=O)NCCCCCN1 [Compound 380] | 100 to 1000 nM |  | 
3 | O=C1CNC(=O)[C@@H](Cc2ccc(NC(=O)[C@H](Cc3ccc(F)cc3Cl)NC(=O)Cc3ccccc3)cc2)NC(=O)CC2(CCCC2)CC(=O)NCCCCCN1 [Compound 386] | 1000 to 10000 nM | < 100 nM | 
4 | O=C1CNC(=O)[C@@H](Cc2ccc(NC(=O)[C@H](Cc3ccc(F)cc3Cl)NC(=O)Cc3ccc(F)cc3)cc2)NC(=O)CC2(CCCC2)CC(=O)NCCCCCN1 [Compound 388] | < 100 nM | < 100 nM | 
5 | CN1CCNC(=O)CC2(CCCC2)CC(=O)N[C@H](Cc2ccc(NC(=O)[C@H](Cc3ccccc3Cl)NC(=O)Cc3ccccc3)cc2)C(=O)NCC1 [Compound 399] | 1000 to 10000 nM | < 100 nM | 
6 | O=C1CNC(=O)[C@@H](Cc2ccc(NC(=O)[C@H](Cc3ccccc3Cl)NC(=O)Cc3ccc(NC(=O)CNCc4ccccc4)cc3)cc2)NC(=O)CC2(CCCC2)CC(=O)NCCCCCN1 [Compound 405] | 100 to 1000 nM | < 100 nM | 
7 | O=C1CC2(CCCC2)CC(=O)NC(Cc2ccc(NC(=O)C(Cc3ccccc3Cl)NC(=O)c3cccnc3)cc2)C(=O)NCCOCCOCCN1 (centres unmarked) [Compound 406] |  | < 100 nM | 1000 to 10000 nM
8 | O=C1CNC(=O)[C@@H](Cc2ccc(NC(=O)[C@H](Cc3ccc(F)cc3Cl)NC(=O)Cc3ccc(CO)cc3)cc2)NC(=O)CC2(CCCC2)CC(=O)NCCCCCN1 [Compound 408] | 100 to 1000 nM | < 100 nM | 
9 | CN1C(=O)CC2(CCCC2)CC(=O)NCCCCCNC(=O)CNC(=O)[C@H]1Cc1ccc(NC(=O)[C@H](Cc2ccccc2Cl)NC(=O)Cc2ccccc2)cc1 [Compound 413] | > 10000 nM | < 100 nM | 
10 | O=C1CC2(CCCC2)CC(=O)N[C@H](Cc2ccc(NC(=O)[C@@H](NC(=O)Cc3ccc(F)cc3)C3CCCCC3)cc2)C(=O)NCCOCCOCCN1 [Compound 424] | > 10000 nM | < 100 nM | 
11 | O=C1CC2(CCCC2)CC(=O)N[C@H](Cc2ccc(NC(=O)[C@H](Cc3ccccc3Cl)NC(=O)Cc3ccc(F)cc3)cc2)C(=O)N[C@H](C2CCCCC2)C(=O)NCCCCCN1 [Compound 425] | 100 to 1000 nM | < 100 nM | 
12 | C[C@H]1NC(=O)[C@@H](Cc2ccc(NC(=O)[C@H](Cc3ccccc3Cl)NC(=O)C3(c4ccc(F)cc4)CC3)cc2)NC(=O)CC2(CCCC2)CC(=O)NCCCCCNC1=O [Compound 427] | 1000 to 10000 nM | < 100 nM | 
13 | C[C@H]1NC(=O)[C@@H](Cc2ccc(NC(=O)[C@H](Cc3ccccc3Cl)NC(=O)C(F)(F)c3ccccc3)cc2)NC(=O)CC2(CCCC2)CC(=O)NCCCCCNC1=O [Compound 434] | 100 to 1000 nM | < 100 nM | 
14 | CN(C)CCOc1ccc(CC(=O)N[C@H](C(=O)Nc2ccc(C[C@H]3NC(=O)CC4(CCCC4)CC(=O)NCCCCCNC(=O)[C@@H](Cc4ccccc4)NC3=O)cc2)C2CCCCC2)cc1 [Compound 437] | 1000 to 10000 nM | 100 to 1000 nM | 
15 | CN(CCOc1ccc(CC(=O)N[C@@H](Cc2ccccc2Cl)C(=O)Nc2ccc(C[C@H]3NC(=O)CC4(CCCC4)CC(=O)NCCCCCNC(=O)[C@@H](Cc4ccccc4)NC3=O)cc2)cc1)Cc1ccccc1 [Compound 438] | 100 to 1000 nM | < 100 nM | 
16 | O=C1CC2(CCCC2)CC(=O)N[C@H](Cc2ccc(NC(=O)[C@H](Cc3ccccc3Cl)NC(=O)Cc3ccc(OCCN4CCOCC4)cc3)cc2)C(=O)N[C@H](Cc2ccccc2)C(=O)NCCCCCN1 [Compound 439] | 100 to 1000 nM | < 100 nM | 
17 | O=C1CC2(CCCC2)CC(=O)N[C@H](Cc2ccc(NC(=O)[C@H](Cc3ccccc3Cl)NC(=O)Cc3cccc(O)c3)cc2)C(=O)NCCCCCCCCN1 [Compound 441] | 100 to 1000 nM | < 100 nM | 
18 | O=C1CC2(CCCC2)CC(=O)N[C@H](Cc2ccc(NC(=O)[C@H](Cc3ccccc3Cl)NC(=O)c3cccnc3)cc2)C(=O)NCCCCCCCCN1 [Compound 442] | 1000 to 10000 nM | < 100 nM | 
19 | C[C@H]1NC(=O)[C@@H](Cc2ccc(NC(=O)[C@H](Cc3ccccc3Cl)NC(=O)Cc3ccccc3)cc2)NC(=O)CC2(CCCC2)CC(=O)NCCNCCNC1=O [Compound 443] | 100 to 1000 nM | < 100 nM | 

Row | SMILES | IC50 ([1]; Homo sapiens, Fibroblast) | IC50 [2] | IC50 [1]
20 | O=C1CC2(CCCC2)CC(=O)N[C@H](Cc2ccc(NC(=O)[C@H](Cc3ccccc3Cl)NC(=O)Cc3ccc(F)cc3)cc2)C(=O)NCC#CCCCCCN1 [Compound 446] | 100 to 1000 nM | < 100 nM | 
21 | O=C1CC2(CCCC2)CC(=O)N[C@H](Cc2ccc(NC(=O)[C@H](Cc3ccccc3Cl)NC(=O)Cc3ccc(CO)cc3)cc2)C(=O)N[C@@H](CO)C(=O)NCCCC[C@@H](C(=O)O)N1 [Compound 455] | < 100 nM | < 100 nM | 
22 | CN1CCCCCNC(=O)CNC(=O)[C@@H](Cc2ccc(NC(=O)[C@H](Cc3ccccc3Cl)NC(=O)Cc3cccc(O)c3)cc2)NC(=O)CC2(CCCC2)CC1=O [Compound 457] | 1000 to 10000 nM | < 100 nM | 
23 | C[C@H]1NC(=O)[C@@H](Cc2ccc(NC(=O)[C@H](Cc3ccccc3Cl)NC(=O)Cc3ccc(F)cc3)cc2)NC(=O)CC2(CCCC2)CC(=O)N(C)CCCCCNC1=O [Compound 469] | 1000 to 10000 nM | < 100 nM | 
24 | C[C@H]1NC(=O)[C@@H](Cc2ccc(NC(=O)[C@H](Cc3ccccc3Cl)NC(=O)Cc3ccc(F)cc3)cc2)NC(=O)CC2(CCCC2)CC(=O)NCCCCCN(C)C1=O [Compound 470] | 100 to 1000 nM | < 100 nM | 
25 | CN1CCCCCNC(=O)[C@@H](CCC(=O)O)NC(=O)[C@@H](Cc2ccc(NC(=O)[C@H](Cc3ccccc3Cl)NC(=O)Cc3cccc(O)c3)cc2)NC(=O)CC2(CCCC2)CC1=O [Compound 473] | 100 to 1000 nM | < 100 nM | 
26 | Cc1ccccc1C[C@H](NC(=O)Cc1ccc(F)cc1)C(=O)Nc1ccc(C[C@H]2NC(=O)CC3(CCCC3)CC(=O)NCCCCCNC(=O)[C@@H](C)NC2=O)cc1 [Compound 476] | 100 to 1000 nM | < 100 nM | 
27 | Cc1ccccc1C[C@H](NC(=O)Cc1ccc(F)cc1)C(=O)Nc1ccc(C[C@H]2NC(=O)CC3(CCCC3)CC(=O)NCCOCCOCCNC2=O)cc1 [Compound 478] | 1000 to 10000 nM | < 100 nM | 
28 | NC(=O)CC[C@H]1NC(=O)[C@@H](Cc2ccc(NC(=O)[C@H](Cc3ccccc3Cl)NC(=O)Cc3ccc(F)cc3)cc2)NC(=O)CC2(CCCC2)CC(=O)NCCCCCNC1=O [Compound 479] | < 100 nM | < 100 nM | 
29 | C[C@H]1NC(=O)[C@@H](Cc2ccc(NC(=O)[C@H](Cc3ccccc3Cl)NC(=O)Cc3ccc(F)cc3)cc2)N(C)C(=O)CC2(CCCC2)CC(=O)N(C)CCCCCNC1=O [Compound 480] | 1000 to 10000 nM | < 100 nM | 
30 | O=C1CC2(CCCC2)CC(=O)N[C@H](Cc2ccc(NC(=O)[C@H](Cc3ccccc3Cl)NC(=O)OCc3ccccc3)cc2)C(=O)NCCOCCOCCN1 [Compound 484] | 100 to 1000 nM | < 100 nM | 
31 | C[C@H]1NC(=O)[C@@H](Cc2ccc(NC(=O)[C@H](Cc3ccccc3Cl)NC(=O)Cc3ccc(CO)cc3)cc2)NC(=O)CC2(CCCC2)CC(=O)NCCCCCNC1=O [Compound 487] | < 100 nM | < 100 nM | 
32 | C[C@H]1NC(=O)[C@@H](Cc2ccc(NC(=O)[C@H](Cc3ccccc3Cl)NC(=O)Cc3ccc(F)cc3)cc2)NC(=O)CC2(CCCC2)CC(=O)N(C)CCCCCN(C)C1=O [Compound 488] | 1000 to 10000 nM | < 100 nM | 
33 | O=C1CC2(CCCC2)CC(=O)N[C@H](Cc2ccc(NC(=O)[C@H](Cc3ccccc3Cl)NC(=O)Cc3ccc(F)cc3)cc2)C(=O)NCCOCCOCCN1 [Compound 490] | 1000 to 10000 nM | < 100 nM | 
34 | Cc1ccc(CC(=O)N[C@@H](Cc2ccccc2Cl)C(=O)Nc2ccc(C[C@H]3NC(=O)CC4(CCCC4)CC(=O)NCCOCCOCCNC3=O)cc2)cc1 [Compound 494] | 100 to 1000 nM | < 100 nM | 
35 | Cc1ccccc1CC(=O)N[C@@H](Cc1ccccc1Cl)C(=O)Nc1ccc(C[C@H]2NC(=O)CC3(CCCC3)CC(=O)NCCOCCOCCNC2=O)cc1 [Compound 495] | 1000 to 10000 nM | < 100 nM | 
36 | O=C1CC2(CCCC2)CC(=O)N[C@H](Cc2ccc(NC(=O)[C@H](Cc3ccccc3Cl)NC(=O)Cc3ccc(F)cc3)cc2)C(=O)NCC#CCCCCN1 [Compound 497] | 1000 to 10000 nM | < 100 nM | 
37 | Cc1ccccc1C[C@H](NC(=O)C(F)(F)c1ccccc1)C(=O)Nc1ccc(C[C@H]2NC(=O)CC3(CCCC3)CC(=O)N(C)CCCCCNC(=O)[C@@H](C)NC2=O)cc1 [Compound 512] | 100 to 1000 nM |  | 
